Reference: US12209102B2, “Heterocyclic compounds and uses thereof” (Kumquat Biosciences Inc., priority 2022, dated 2025)

Key:
SW620 cells = test: Ras cellular assay, growth of cells with K-Ras G12V mutation (CellTiter-Glo); format: cell-based; settings: Homo sapiens, SW-620; cell growth, Example 9, G12V mutation; read-out: IC50 against SW620 cells
Method in brief: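 IC50 values came from a four-parameter fit of CellTiter-Glo viability, read roughly 6 days after dosing with e.g. a 10-point threefold dilution series. G12V-mutant SW620 cells (e.g. 800 per well) had been plated the previous day in RPMI-1640/10% heat-inactivated FBS, on tissue culture-treated or ultra-low attachment plates.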

A549 cells = test: Ras cellular assay, growth of cells with K-Ras G12S mutation (CellTiter-Glo); format: cell-based; settings: Homo sapiens, cell growth, Example 9, G12S mutation, read-out: IC50 against A549 cells
Procedure: For example, this assay can be also used to assess a selective growth inhibition of a mutant Ras protein relative to a wildtype, or relative to a different mutant Ras protein.
A549 (ATCC CCL-185) and LS123 (ATCC CCL-255) cell lines comprise a G12S mutation and can be used to assess Ras cellular signaling in vitro, e.g., in response to the compounds herein. A549 culture medium is prepared with RPMI-1640 and 10% heat-inactivated FBS. LS123 culture medium is prepared with RPMI-1640 and 10% heat-inactivated FBS. A CellTiter-Glo (CTG) luminescent based assay (Promega) is used to assess growth of the cells, as a measurement of the ability of the compounds herein to inhibit Ras signaling in the cells. The cells (e.g., 800 per well) are seeded in their respective culture medium in standard tissue culture-treated 384-well format plates (Falcon #08-772-116) or ultra-low attachment surface 384-well format plates (S-Bio #MS-9384WZ). The day after plating, cells are treated with a dilution series (e.g., a 10 point 3-fold dilution series) of the compounds herein (e.g., approximately 40 μL final volume per well). Cell viability can be monitored (e.g., approximately 6 days later) according to the manufacturer's recommended instructions, where the CellTiter-Glo reagent is added (e.g., approximately 10 μL), vigorously mixed, covered, and placed on a plate shaker (e.g., approximately for 20 min) to ensure sufficient cell lysis prior to assessment of luminescent signal. The IC50 values are determined using the four parameter fit. The resulting IC50 value is a measurement of the ability of the compounds herein to reduce cell growth of Ras-driven cells (e.g., tumor cell lines) in vitro and/or in vivo.

K-Ras G12V = biological target: T1, K-Ras G12V (Homo sapiens, UniProt P01116, G12V); test: HTRF resonance energy transfer assay, K-Ras G12V / SOS1 interaction; format: biochemical; settings: HTRF assay of Example 5; read-out: IC50 against K-Ras G12V
T1 construct: made in house; host or cells: E. coli BL21 (DE3)
Method in brief: (§1)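 Compounds, tested in duplicate at 10 μM down to 0.01 μM, were read after about 10 min or more by HTRF as the 665/620 nm emission ratio (337 nm excitation) to derive IC50. This ratio reports FRET between an anti-GST-Eu donor on GST-K-Ras (wild-type or mutant) and an anti-6His-XL665 acceptor on His-hSOS1. Buffer: ~5 mM HEPES pH 7.4, 150 mM NaCl, 1 mM DTT, 0.05% BSA, 0.0025% Igepal.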

K-Ras WT = biological target: T2, K-Ras WT (Homo sapiens, UniProt P01116); test: HTRF resonance energy transfer assay, K-Ras WT / SOS1 interaction; format: biochemical; settings: HTRF assay of Example 5; read-out: IC50 against K-Ras WT
T2 construct: made in house; host or cells: E. coli BL21 (DE3)
Method in brief: as §1

K-Ras G12D = biological target: T3, K-Ras G12D (Homo sapiens, UniProt P01116, G12D); test: HTRF resonance energy transfer assay, K-Ras G12D / SOS1 interaction; format: biochemical; settings: HTRF assay of Example 5; read-out: IC50 against K-Ras G12D
T3 construct: made in house; host or cells: E. coli BL21 (DE3)
Method in brief: as §1

K-Ras G12S = biological target: T4, K-Ras G12S (Homo sapiens, UniProt P01116, G12S); test: HTRF resonance energy transfer assay, K-Ras G12S / SOS1 interaction; format: biochemical; settings: HTRF assay of Example 5; read-out: IC50 against K-Ras G12S
T4 construct: made in house; host or cells: E. coli BL21 (DE3)
Method in brief: as §1

T2 sequence (P01116 1-188 isoform P01116-2): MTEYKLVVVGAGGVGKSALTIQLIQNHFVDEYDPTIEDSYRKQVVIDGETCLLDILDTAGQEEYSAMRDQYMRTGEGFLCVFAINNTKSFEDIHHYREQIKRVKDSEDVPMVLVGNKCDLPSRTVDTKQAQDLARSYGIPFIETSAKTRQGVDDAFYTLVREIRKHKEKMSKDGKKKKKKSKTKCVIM
T4 sequence (P01116 1-188 isoform P01116-2 G12S): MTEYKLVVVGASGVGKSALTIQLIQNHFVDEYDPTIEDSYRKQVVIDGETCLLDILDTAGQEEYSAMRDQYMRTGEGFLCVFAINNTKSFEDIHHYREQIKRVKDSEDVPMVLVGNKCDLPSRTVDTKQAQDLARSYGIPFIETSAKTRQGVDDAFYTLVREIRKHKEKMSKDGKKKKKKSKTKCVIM
T3 sequence (P01116 1-188 isoform P01116-2 G12D): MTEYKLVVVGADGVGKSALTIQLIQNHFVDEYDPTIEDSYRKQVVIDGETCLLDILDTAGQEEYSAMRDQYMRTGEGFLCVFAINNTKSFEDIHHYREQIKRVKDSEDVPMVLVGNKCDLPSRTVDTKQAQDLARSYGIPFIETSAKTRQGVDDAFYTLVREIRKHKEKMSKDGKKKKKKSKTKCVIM
T1 sequence (P01116 1-188 isoform P01116-2 G12V): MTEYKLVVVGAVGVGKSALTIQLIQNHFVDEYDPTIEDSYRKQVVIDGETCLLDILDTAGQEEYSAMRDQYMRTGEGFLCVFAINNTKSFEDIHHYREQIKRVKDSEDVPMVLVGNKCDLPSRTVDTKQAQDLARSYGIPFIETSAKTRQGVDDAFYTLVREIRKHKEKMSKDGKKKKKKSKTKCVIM

Compound | IC50 (SW620 cells) | IC50 (A549 cells) | IC50 (K-Ras G12V) | IC50 (K-Ras WT) | IC50 (K-Ras G12D) | IC50 (K-Ras G12S)
CC1(C)CC(N2CCOc3c(Cl)c(-c4ccc(F)c5sc(N)c(C#N)c45)c(F)c4nc(OC[C@@]56CCCN5C[C@H](F)C6)nc2c34)CO1 (stereo partly drawn) [Compound 1071, 2-amino-4-(8-chloro-4-(5,5-dimethyltetrahydrofuran-3-yl)-10-fluoro-2-(((2R,7aS)-2-fluorotetrahydro-1H-pyrrolizin-7a(5H)-yl)methoxy)-5,6-dihydro-4H-[1,4]oxazepino[5,6,7-de]quinazolin-9-yl)-7-fluorobenzo[b]thiophene-3-carbonitrile] | < 5 µM | < 5 µM | < 0.1 µM | < 0.1 µM | < 0.1 µM | < 0.1 µM
C[C@H](Oc1nc2c3c(c(Cl)c(-c4ccc(F)c5sc(N)c(C#N)c45)c(F)c3n1)OCCN2C1CCOC1)[C@@H]1CCCN1C (stereo partly drawn) [Compound 924, 2-amino-4-(8-chloro-10-fluoro-2-((S)-1-((S)-1-methylpyrrolidin-2-yl)ethoxy)-4-(tetrahydrofuran-3-yl)-5,6-dihydro-4H-[1,4]oxazepino[5,6,7-de]quinazolin-9-yl)-7-fluorobenzo[b]thiophene-3-carbonitrile] | < 5 µM | < 5 µM | < 0.1 µM | < 0.1 µM | < 0.1 µM | < 0.1 µM
C[C@H](Oc1nc2c3c(c(Cl)c(-c4ccc(F)c5sc(N)c(C#N)c45)c(F)c3n1)OCCN2C1CCN(C(=O)c2ccnn2C)CC1)[C@@H]1CCCN1C [Compound 1012, 2-amino-4-(8-chloro-10-fluoro-4-(1-(1-methyl-1H-pyrazole-5-carbonyl)piperidin-4-yl)-2-((S)-1-((S)-1-methylpyrrolidin-2-yl)ethoxy)-5,6-dihydro-4H-[1,4]oxazepino[5,6,7-de]quinazolin-9-yl)-7-fluorobenzo[b]thiophene-3-carbonitrile] | < 5 µM | < 5 µM | < 0.1 µM | < 0.1 µM | < 0.1 µM | < 0.1 µM
N#Cc1c(N)sc2c(F)ccc(-c3c(Cl)c4c5c(nc(OC[C@@]67CCCN6C[C@H](F)C7)nc5c3F)N(C3CCCN(C(=O)[C@@H]5N[C@H]5C5CC5)C3)CCO4)c12 (stereo partly drawn) [Compound 643, 2-amino-4-(8-chloro-4-(1-((2R,3S)-3-cyclopropylaziridine-2-carbonyl)piperidin-3-yl)-10-fluoro-2-(((2R,7aS)-2-fluorotetrahydro-1H-pyrrolizin-7a(5H)-yl)methoxy)-5,6-dihydro-4H-[1,4]oxazepino[5,6,7-de]quinazolin-9-yl)-7-fluorobenzo[b]thiophene-3-carbonitrile] | < 5 µM | < 5 µM | < 0.1 µM | < 0.1 µM | < 0.1 µM | < 0.1 µM
N#Cc1c(N)sc2c(F)ccc(-c3c(Cl)c4c5c(nc(OC[C@@]67CCCN6C[C@H](F)C7)nc5c3F)N(C3CC(NC=O)C3)CCO4)c12 (stereo partly drawn) [Compound 836, N-(3-(9-(2-amino-3-cyano-7-fluorobenzo[b]thiophen-4-yl)-8-chloro-10-fluoro-2-(((2R,7aS)-2-fluorotetrahydro-1H-pyrrolizin-7a(5H)-yl)methoxy)-5,6-dihydro-4H-[1,4]oxazepino[5,6,7-de]quinazolin-4-yl)cyclobutyl)formamide] | < 5 µM | < 5 µM | < 0.1 µM | < 0.1 µM | < 0.1 µM | < 0.1 µM
N#Cc1c(N)sc2c(F)ccc(-c3c(Cl)c4c5c(nc(OC[C@@]67CCCN6C[C@H](F)C7)nc5c3F)N(C3CCOC3)CCCO4)c12 (stereo partly drawn) [Compound 1205, 2-amino-4-(9-chloro-11-fluoro-2-(((2R,7aS)-2-fluorotetrahydro-1H-pyrrolizin-7a(5H)-yl)methoxy)-4-(tetrahydrofuran-3-yl)-4,5,6,7-tetrahydro-[1,5]oxazocino[4,3,2-de]quinazolin-10-yl)-7-fluorobenzo[b]thiophene-3-carbonitrile] | < 5 µM | < 5 µM | < 0.1 µM | < 0.1 µM | < 0.1 µM | < 0.1 µM
C#Cc1c(F)ccc2cc(O)cc(-c3nc4c5c(nc(OC[C@@]67CCCN6C[C@H](F)C7)nc5c3F)N(c3ccccc3)CCO4)c12 [Compound 948, 5-ethynyl-6-fluoro-4-(4-fluoro-2-(((2R,7aS)-2-fluorotetrahydro-1H-pyrrolizin-7a(5H)-yl)methoxy)-10-phenyl-9,10-dihydro-8H-7-oxa-1,3,6,10-tetraazacyclohepta[de]naphthalen-5-yl)naphthalen-2-ol] | < 5 µM | < 5 µM | < 0.1 µM | < 0.1 µM | < 0.1 µM | < 0.1 µM

Continued, values first:

IC50 (SW620 cells) | IC50 (A549 cells) | IC50 (K-Ras G12V) | IC50 (K-Ras WT) | IC50 (K-Ras G12D) | IC50 (K-Ras G12S) | Compound
< 5 µM | < 5 µM | < 0.1 µM | < 0.1 µM | < 0.1 µM | < 0.1 µM | CC(O)CC1COc2c(Cl)c(-c3ccc(F)c4sc(N)c(C#N)c34)c(F)c3nc(OC[C@@]45CCCN4C[C@H](F)C5)nc(c23)N1CC(F)F (stereo partly drawn) [Compound 659, 2-amino-4-(8-chloro-4-(2,2-difluoroethyl)-10-fluoro-2-(((2R,7aS)-2-fluorotetrahydro-1H-pyrrolizin-7a(5H)-yl)methoxy)-5-(2-hydroxypropyl)-5,6-dihydro-4H-[1,4]oxazepino[5,6,7-de]quinazolin-9-yl)-7-fluorobenzo[b]thiophene-3-carbonitrile]
< 5 µM | < 5 µM | < 0.1 µM | < 0.1 µM | < 0.1 µM | < 0.1 µM | N#Cc1c(N)sc2c(F)ccc(-c3c(Cl)c4c5c(nc(OC[C@@]67CCCN6C[C@H](F)C7)nc5c3F)N(Cc3cccnc3)CCO4)c12 [Compound 897, 2-amino-4-(8-chloro-10-fluoro-2-(((2R,7aS)-2-fluorotetrahydro-1H-pyrrolizin-7a(5H)-yl)methoxy)-4-(pyridin-3-ylmethyl)-5,6-dihydro-4H-[1,4]oxazepino[5,6,7-de]quinazolin-9-yl)-7-fluorobenzo[b]thiophene-3-carbonitrile]
< 5 µM | < 5 µM | < 0.1 µM | < 0.1 µM | < 0.1 µM | < 0.1 µM | N#Cc1c(N)sc2c(F)ccc(-c3c(Cl)c4c5c(nc(OC[C@@]67CCCN6C[C@H](F)C7)nc5c3F)N(CC(F)F)CC(C3CC3)O4)c12 (stereo partly drawn) [Compound 1128, 2-amino-4-(8-chloro-6-cyclopropyl-4-(2,2-difluoroethyl)-10-fluoro-2-(((2R,7aS)-2-fluorotetrahydro-1H-pyrrolizin-7a(5H)-yl)methoxy)-5,6-dihydro-4H-[1,4]oxazepino[5,6,7-de]quinazolin-9-yl)-7-fluorobenzo[b]thiophene-3-carbonitrile]
< 5 µM | < 5 µM | < 0.1 µM | < 0.1 µM | < 0.1 µM | < 0.1 µM | N#Cc1c(N)sc2c(F)ccc(-c3c(Cl)c4c5c(nc(OC[C@@]67CCCN6C[C@H](F)C7)nc5c3F)N(C3CCC(C#N)C3)CCO4)c12 (stereo partly drawn) [Compound 684, 2-amino-4-(8-chloro-4-(3-cyanocyclopentyl)-10-fluoro-2-(((2R,7aS)-2-fluorotetrahydro-1H-pyrrolizin-7a(5H)-yl)methoxy)-5,6-dihydro-4H-[1,4]oxazepino[5,6,7-de]quinazolin-9-yl)-7-fluorobenzo[b]thiophene-3-carbonitrile]
